In US20050255118A1, “Methods and composition for treating tumors and metastatic disease” (priority 2004, published 2005):
Like-named read-outs stand apart in the source and are kept apart here.

What was measured:
[1] = system: human MOLT-4 acute lymphoblastic leukemia xenografts; experiment: Growth of subcutaneously-implanted human MOLT-4 xenografts in SCID mice; assay type: in vivo, female SCID mice; details: for Effect on growth of SC-implanted MOLT-4 xenografts (primary tumor): treatment after establishment of tumor
Protocol: Mice were fed sterilizable rodent diet (Harlan-Teklad TD8656). Cages were changed twice weekly.
Thirty-to-forty milligram fragments of MOLT-4 human leukemia were implanted in mice near the right auxiliary area using a 12-gauge trocar needle and allowed to grow. The day of tumor fragment implantation was Day 0 of the experiment. Tumors were allowed to reach 75-144 mg in weight (75-144 mm3 in size) before the start of the treatments. A sufficient number of mice were implanted so that tumors in a weight range as narrow as possible were selected for the trial on the day of treatment initiation (Day 14 after tumor implantation). Those animals selected with tumors in the proper size range were randomized into treatment groups. The mean tumor weights on the first day of treatment were ranging from 84 or 96 mg; median tumor weights were 75 or 88 mg on Day 14.
Natalizumab (a 20-mg/mL solution, Gensia Sicor Pharmaceuticals Inc., Lot Nos. F23014 and G23004) and a diluent (Placebo for Tysabri®, Gensia Sicor Pharmaceuticals Inc., Lot No. F85002) were received from Biogen Idec Inc. and were stored at +2-8° C. upon receipt. Vials with a 0.97-mg/mL solution of human immunoglobulin (IgG4) were supplied by Sigma-Aldrich (St. Louis, Mo., Lot No. 122K9159) and were stored at −84° C. upon receipt. A clinical formulation of Taxol® (placlitaxel) (6.0 mg/mL in 50% cremophor-EL/50% ethanol, Bristol-Myers Squibb Company, Princeton, N.J.; Lot No. 2L57296) was purchased and refrigerated upon receipt. Saline (Saline Solution 0.9%, for animal use only) was purchased from Phoenix Pharmaceutical, Inc. (St. Joseph, Mo., Lot Nos. 262053F, 206205F, 208281F) and stored at room temperature. A new bottle of saline was used on each day of formulation.
On Day 14, a 20-mg/mL solution of natalizumab was diluted with Placebo for Tysabri® to 1.0 mg/mL. On subsequent injection days, a 0.5-mg/mL solution of natalizumab was formulated by diluting a 20-mg/mL stock solution with Placebo for Tysabri®. Care was taken not to shake the vials with natalizumab; the vials were inverted to mix. A new vial of natalizumab and Placebo for Tysabri® were used on each day of formulation. On Day 14, a supplied 0.97-mg/mL stock solution of IgG4 was thawed and injected into mice. On subsequent injection days, a 0.5-mg/mL solution of IgG4 was prepared by diluting a 0.97-mg/mL stock solution with Saline Solution 0.9%. A new vial with IgG4 was used on each day of formulation. An aliquot of a commercially formulated 6-mg/mL solution of Taxol® in 50% cremophor-EL/50% ethanol was diluted on each day of injection with Saline Solution 0.9% to make a 1.5-mg/mL solution in 12.5% cremophor-EL/12.5% ethanol/75% saline. All dosing solutions were injected within 2 to 3 hours of formulation.
Primary tumors of animals in Groups 5 and 6 were surgically excised on Day 28, one day after the median tumor weight in Group S reached 466 mg. Administration of anesthesia and surgery/post-surgery recovery procedures were conducted following approved standard laboratory methods. Briefly, each animal was anesthetized and the incision site was prepared with an antiseptic solution. An incision along the periphery of one side of the tumor (no more than 3-4 mm longer than the diameter of the tumor) was made, the skin was reflected and the tumor was everted through the incision. Tumor was dissected away from the skin and muscle. The incision was closed with a 4.0-mm wound clip. Each excised tumor was cut in half, with one half of the tumor frozen in O.C.T. compound and the second half of the tumor preserved in 10% buffered formalin. The site of the resection was monitored for tumor re-growth twice a week and when a new solid tumor was formed, its dimensions were recorded.
Animals No. 1-10 in Groups 1-4 were euthanized on Day 47 after tumor implantation (16 May 2003); Animals No. 11-20 in Groups 1-4 were euthanized on Day 48 (17 May 2003). […]

[2] = mouse, in vivo
Text: (§4) In-life experimental work commenced on Day 0 and was terminated on Day 80. Five-to-six-weeks-old, female SCID mice were purchased from Taconic Farms, Inc. (Germantown, N.Y.) and acclimated in the laboratories one week prior to experimentation. The animals were housed in a pathogen-free barrier facility in micro-isolator cages, with five animals per cage in a 12-hour light/dark cycle. The animals received filtered Birmingham municipal water and sterile rodent food ad libitum. Mice were fed sterilizable rodent diet (Harlan-Teklad TD8656). Cages were changed twice weekly. The animals were observed daily and clinical signs were noted.
(§5) Animals were randomly divided into six groups of 20 animals each and one group of 30 animals. Two groups (Groups 1 and 5) were treated with Saline Solution 0.9% (saline). Animals in Groups 2, 6, and 7 were treated with natalizumab. Animals in Group 3 were treated with IgG4 (isotype control). Animals in Group 4 were treated with Taxol® (positive control). Treatments with saline, natalizumab, and IgG4 (Groups 1, 2, 3, 5, and 6) were administered IP on Days 14, 17, 21, 24, 28, 31, 35, 38, 42, and 45 (Q3D×2 for five weeks, Friday-Monday schedule). Treatment with natalizumab in Group 7 (a group of 30 mice) was administered on Days 14, 17, 21, 24, 28, 31, 35, and 38 (Q3D×2 for four weeks). On Day 14 natalizumab was administered at a dosage of 10 mg/kg, followed by further treatments with a dosage of 5 mg/kg/dose. […]
(§6) The animals were weighed and the subcutaneous (SC) tumors were measured on the days when treatments were administered starting on Day 14 with an exception of two measurements which were done one day before the injection (on Days 24 and 41). […]
(§7) The number of non-specific deaths, number of partial and complete tumor regressions, number of tumor-free survivors, and the individual animal's time to reach the evaluation size (time to reach four tumor mass doublings) were determined. […] Mean body weights and standard deviations were calculated for each group on each day of data collection (values are presented in Tables 8-9 through 8-15).

[3] = system: human acute lymphoblastic leukemia xenografts; experiment: Necropsy and histopathologic evaluation of xenograft-bearing SCID mice; parameters: species or system female SCID mice; details: mouse, in vivo
Protocol: Animals No. 1-10 in Groups 1-4 were euthanized on Day 47 after tumor implantation (16 May 2003); Animals No. 11-20 in Groups 1-4 were euthanized on Day 48 (17 May 2003). All surviving animals in Groups 5 and 6 (except for Animal No. 12 in Group 5 and Animal No. 8 in Group 6, for explanations see below) were euthanized on Day 80 after tumor implantation […]. Animal No. 12 in Group 5 was sacrificed on Day 73 due to excessive tumor weight (>4,000 mg). Animal No. 8 in Group 6 was sacrificed on Day 73 due to tumor ulceration. Five animals in Group 7 were euthanized on Days 14, 21, 28, 35, and ten animals were euthanized on Day 38. Carcasses of all animals alive on Days 47, 48, and 80 were submitted to the Safety Assessment Department of Southern Research Institute for necropsy followed by complete histopathological evaluation. Animals in Group 7 were excluded from necropsy and complete histopathological evaluation. For the animals in Groups 1-6, tumor implantation (subcutaneous) took place on Day 0. Treatment was initiated on Day 14, and treatment was terminated on Day 45. Primary tumor excision occurred on Day 28 post-implantation in Groups 5 and 6. The animals were sacrificed on Day 80. Animals in the non-excision group were sacrificed at days 47-48.
Each tumor weighing more than 100 mg was cut in half and one half of the each tumor was frozen in O.C.T. compound using a dry ice/ethanol slush, and stored at −84° C. Tumors weighing less than 100 mg (tumors of Animals No. 1, 3, 7, 9, 11, 12, 14-18, and 20 in Group 4) were frozen in O.C.T. compound in toto. Tumor of Animals No. 2, 4, 5, 6, 8, 13, and 19 in Group 4, which weighed less than 100 mg, were preserved in 10% buffered formalin in toto. After the completion of the experiment all tumor samples frozen in O.C.T. compound (a total of 145 tumor samples) were shipped to Sierra Biomedical, Division of Charles River Laboratories, to be examined by immunohistochemistry to verify that MOLT-4 was expressing VLA-4 in vivo and thus was a valid tumor model for this study. […]

[4] = system: human MOLT-4 acute lymphoblastic leukemia xenografts; experiment: Growth of subcutaneously-implanted human MOLT-4 xenografts in SCID mice; assay type: in vivo, female SCID mice; details: treatment initiated Day -7
[5] = system: AS283 cell line; experiment: 3H-thymidine incorporation (tritiated thymidine uptake) proliferation assay, AS283; assay type: cell-based; details: 1, 2, 3, 4 and 5 days of exposure, eight concentrations (0.001-100 mg/mL)
Protocol: (§1) In order to assess the potential of natalizumab to induce or inhibit proliferation of transformed cells and clonal expansion possibly leading to neoplasia, experiments were performed to determine the ability of natalizumab to stimulate growth of malignant cells expressing the receptor in vitro, and studies were conducted in animal tumor models.
(§2) The evaluation of positive or negative effects on proliferation of the tumor cell lines was performed using 3H-thymidine incorporation assays. Evaluation of the inhibition or potentiation of human tumor cell growth and/or metastasis was determined using a tumor xenograft nude/SCID mouse model. Thirty-two tumor cell lines were screened. Of the thirty-two tumor cell lines, twelve were colorectal carcinoma, colorectal adenocarcinoma, colon adenocarcinoma, or colon carcinoma cell lines; seven were melanomas or amelanotic melanomas; six were urinary bladder transitional cell carcinomas or urinary bladder carcinomas; three were leukemias; two were lymphomas; and two were prostate carcinomas.
(§3) An adhesion assay for VCAM-1 binding was also performed. Seven of the eleven cell lines evaluated were positive. […] AS283, HT-29, MOLT-4, and UM-UC-3 cell lines were treated with Tysabri® (natalizumab). Tritiated thymidine uptake was measured.

[6] = Tolerability (deaths, body weight) in MOLT-4 xenograft-bearing SCID mice
Text: as §4, §5, §6, §7

[7] = system: HT-29 cell line; experiment: 3H-thymidine incorporation (tritiated thymidine uptake) proliferation assay, HT-29; assay type: cell-based; details: 1, 2, 3, 4 and 5 days of exposure, eight concentrations (0.001-100 mg/mL)
Protocol: as §1, §2, §3

[8] = system: UM-UC-3 cell line; experiment: 3H-thymidine incorporation (tritiated thymidine uptake) proliferation assay, UM-UC-3; assay type: cell-based; details: 1, 2, 3, 4 and 5 days of exposure, eight concentrations (0.001-100 mg/mL)
Protocol: as §1, §2, §3

[9] = system: MOLT-4 cell line; experiment: 3H-thymidine incorporation (tritiated thymidine uptake) proliferation assay, MOLT-4; assay type: cell-based, human; details: 1, 2, 3, 4 and 5 days of exposure, eight concentrations (0.001-100 mg/mL)
Protocol: as §1, §2, §3

[10] = system: tumor cell lines (nine evaluated); experiment: Preliminary cell proliferation assay on nine tumor cell lines; assay type: cell-based; details: all nine of the nine cell lines evaluated
Protocol: as §2, §3

CC(=O)O[C@H]1C(=O)[C@@]2(C)[C@H]([C@H](OC(=O)c3ccccc3)[C@]3(O)C[C@H](OC(=O)[C@H](O)[C@@H](NC(=O)c4ccccc4)c4ccccc4)C(C)=C1C3(C)C)[C@]1(OC(C)=O)CO[C@@H]1C[C@@H]2O [Taxol, placlitaxel, reference compound]
Measurable tumors that doubled their mass once over the course of the experiment ([1]; no excision (Group 4)): three out of eight | Animals with no measurable tumor at termination of the experiment ([1]; no excision, 15 mg/kg/dose IV Q1Dx5 from Day 14): Twelve out of twenty | Effect on growth of SC-implanted MOLT-4 xenografts (primary tumor) ([1]; no excision): very effective in the inhibition | Tolerability of administration [2]: well tolerated without deaths or sustained body weight loss | Gross and microscopic lesions, relation to treatment [3]: spontaneous or incidental and unrelated

natalizumab: a humanized antibody against VLA-4 as described in U.S. Pat. Nos. 5,840,299 and 6,033,665
Effect on tumor growth, treatment initiated prior to tumor implantation [4]: significant decrease in tumor growth | Tritiated thymidine uptake: cytotoxic or proliferative effect [5]: no evidence of a cytotoxic or proliferative effect | Effect on animal health (body weights over the treatment period) ([6]; mouse, in vivo): did not adversely affect animal health | Tolerability of administration ([6]; non-excision groups, natalizumab and IgG4 IP Days 14-45, Taxol IV Q1Dx5): well tolerated without deaths | Tritiated thymidine uptake: cytotoxic or proliferative effect [7]: no evidence of a cytotoxic or proliferative effect | Tritiated thymidine uptake: cytotoxic or proliferative effect [8]: no evidence of a cytotoxic or proliferative effect | Tritiated thymidine uptake: cytotoxic or proliferative effect [9]: no evidence of a cytotoxic or proliferative effect | Preliminary cell proliferation assay: cytotoxic or proliferative effect [10]: no cytotoxic or proliferative effect | Median tumor weight ([1]; Day 47, treatment started Day 14 on established tumor, no excision (Groups 2-4)): 1240 mg | Median tumor weight (re-grown tumor) ([1]; Day 80, primary tumor excised Day 28 (Group 6)): 1006 mg | Animals staying tumor-free on day of study termination ([1]; Group 6, Day 80): two | Animals whose tumor re-grew at the site of the primary tumor following excision ([1]; Group 6, excision Day 28): seventeen out of nineteen | Effect on re-growth of tumor at the site of excision of the primary tumor ([1]; Group 6 vs Group 5, excision Day 28): re-grew at a slower rate | Tumors growing / animals with tumor at termination of the experiment ([1]; no excision (Groups 2 and 3)): All twenty tumors grew | Time for median tumor to reach four tumor mass doublings ([1]; primary tumor excised Day 28 (Group 6), not reached): > 66.0 days | Effect on growth of SC-implanted MOLT-4 xenografts (primary tumor) ([1]; no excision): not inhibited | Time for median tumor to reach four tumor mass doublings ([1]; treatment started Day 14 on established tumor, no excision (Groups 2-4)): 33.5 days | Exacerbation of growth or metastasis of the xenografts (histopathology) [3]: no evidence of exacerbation of growth or metastasis | Gross and microscopic lesions, relation to treatment [3]: spontaneous or incidental and unrelated
